Test results published in patent US7772271B2 (priority 2004, dated 2010).

SMILES	melting point
CCOC(CCOc1ccc2c(C#N)c(-c3ccc(NC(=O)OC(C)C)cc3)n(C3CCC3)c2c1)OCC [Compound 2779]	146 to 150 °C
CCn1c(-c2ccc(NS(=O)(=O)CC)cc2)c(C#N)c2ccc(C(=O)N3CCOCC3)cc21 [Compound 1361]	238 to 241 °C
CCN(CC)C(=O)c1ccc2c(C#N)c(-c3ccc(NC(=O)O[C@H](C)C4CC4)cc3)n(C3CCC3)c2c1 [Compound 2272]	166 to 168 °C
CCn1c(-c2ccc(NC(=O)OCCF)cc2)c(C#N)c2ccc(OCCOC)cc21 [Compound 1371]	166 to 168 °C
CC(C)(C)OC(=O)Nc1ccc(-c2c(C#N)c3ccc(N4CCSCC4)cc3n2C2CCC2)cc1 [Compound 2777]	191 °C (dec.)
CC(OC(=O)Nc1ccc(-c2c(C#N)c3ccc(Oc4ncccn4)cc3n2C2CCC2)cc1)C(F)(F)F (centres unmarked) [Compound 2707]	211 to 213 °C
CC(OC(=O)Nc1ccc(-c2c(C#N)c3ccc(OC4CCOC4)cc3n2C2CCC2)cc1)C(F)(F)F (centres unmarked) [Compound 1457]	183 to 184 °C
CCOc1ccc2c(C#N)c(-c3ccc(S(=O)(=O)N4CCCCC4)cc3)n(C3CCC3)c2c1 [Compound 2661]	195 to 202 °C
CC(C)Nc1ccc(-c2c(C#N)c3ccc(OC4CCOC4)cc3n2C2CC2)cc1 (centres unmarked) [Compound 2150]	170 to 172 °C
CCn1c(-c2ccc(NC(=O)NC(C)C)cc2)c(C#N)c2ccc(OCCOC)cc21 [Compound 1405]	182 to 185 °C
CCOc1ccc2c(C#N)c(-c3ccc(NC(=O)OCc4cnccn4)cc3)n(C3CCC3)c2c1 [Compound 1426]	159 to 164 °C
C[C@@H](OC(=O)Nc1ccc(-c2c(C#N)c3ccc(C(=O)N(C)C)cc3n2C2CCC2)cc1)C1CC1 [Compound 2276]	118 to 120 °C
CCNC(=O)Oc1ccc(-c2c(C#N)c3ccc(OC4CCOCC4)cc3n2CC2CC2)cc1 [Compound 2780]	155 to 156 °C
CCCS(=O)(=O)Nc1ccc(-c2c(C#N)c3ccc(N4CCOCC4)cc3n2C2CCC2)cc1 [Compound 2803]	203 to 204 °C
COCCOc1ccc2c(C#N)c(-c3ccc(NC(=O)OC(C)c4ccccc4)cc3)n(C3CC3)c2c1 (centres unmarked) [Compound 1438]	76 to 79 °C
N#Cc1c(-c2ccc(OC(=O)N3CCOCC3)cc2)n(CC2CC2)c2cc(OC3CCOCC3)ccc12 [Compound 2790]	188 to 189 °C
COCCOc1ccc2c(C#N)c(-c3ccc(C(=O)N4CCCCC4)cc3)n(C3CCC3)c2c1 [Compound 2757]	155 to 158 °C
N#Cc1c(-c2ccc(OC(=O)N3CCCC3)cc2)n(C2CCC2)c2cc(OC3CCOCC3)ccc12 [Compound 2815]	179 to 181 °C
CCN(CC)C(=O)c1ccc2c(C#N)c(-c3ccc(NC(=O)OC(C)C)cc3)n(C3CCC3)c2c1 [Compound 2186]	189 to 191 °C
N#Cc1c(-c2ccc(NC(=O)OC(C(F)(F)F)C(F)(F)F)cc2)n(C2CCC2)c2cc(OCC3OCCO3)ccc12 [Compound 2657]	202 to 205 °C
CCCn1c(-c2ccc(NC(=O)NCc3ccco3)cc2)c(C#N)c2ccc(OC)cc21 [Compound 1388]	161 to 164 °C
C=COC(=O)Nc1cccc(-c2c(C#N)c3ccc(OCC)cc3n2C2CCC2)c1 [Compound 1355]	163 to 164 °C
CC(OC(=O)Nc1ccc(-c2c(C#N)c3cc(OCCCn4cncn4)ccc3n2C2CCC2)cc1)C1CCC1 (centres unmarked) [Compound 2730]	149 to 150 °C
N#Cc1c(-c2ccc(NC(=O)OCc3ccccc3)cc2)n(C2CCC2)c2ccc(OCCCn3cncn3)cc12 [Compound 2732]	215 to 217 °C
CCCCNC(=O)Oc1ccc(-c2c(C#N)c3ccc(OC4CCOCC4)cc3n2C2CCC2)cc1 [Compound 2810]	137 to 138 °C
C[C@@H](OC(=O)Nc1ccc(-c2c(C#N)c3ccc(OCCCS(C)(=O)=O)cc3n2C2CCC2)cc1)C1CC1 [Compound 2694]	155 to 160 °C
COCCOc1ccc2c(C#N)c(-c3ccc(C(=O)NC4CCC4)cc3)n(C3CCC3)c2c1 [Compound 2759]	199 to 200 °C
CCCn1c(-c2ccc(NC(=O)N(CC)CC)cc2)c(C#N)c2ccc(OC)cc21 [Compound 1386]	213 to 214 °C
COc1ccnc(Oc2ccc3c(C#N)c(-c4ccc(NC(=O)NC(C)C)cc4)n(C4CCC4)c3c2)n1 [Compound 2750]	221 to 225 °C

Now from value to compound:

melting point	SMILES
153 to 160 °C	CCOc1ccc2c(C#N)c(-c3ccc(N(CC)C(=O)NC4CCCC4)cc3)n(C3CCC3)c2c1 [compound 1425, 1-[4-(3-cyano-1-cyclobutyl-6-ethoxy-1H-indol-2-yl)-phenyl]-3-cyclopenyl-1-ethyl-urea]
240 to 242 °C	CCCS(=O)(=O)Nc1ccc(-c2c(C#N)c3ccc(-c4cnccc4OC)cc3n2C2CCC2)cc1 [Compound 3202]
176 to 180 °C	C[C@@H](OC(=O)Nc1c(F)cc(-c2c(C#N)c3ccc(OCCF)cc3n2C2CCC2)cc1F)C1CC1 [Compound 3040]
152 °C (dec.)	C[C@H](NC(=O)Nc1ccc(-c2c(C#N)c3ccc(Oc4ncccn4)cc3n2C2CCC2)cc1)c1ccc(F)cc1 [Compound 2820]
112 to 117 °C	Cc1cccc(-c2ccc3c(C#N)c(-c4ccc(NC(=O)O[C@H](C)C5CC5)cc4)n(C4CCC4)c3c2)c1 [Compound 2977]
188 to 190 °C	CC(C)Nc1ccc(-c2c(C#N)c3ccc(Oc4ncccc4F)cc3n2C2CCC2)cc1 [Compound 3004]
269 to 271 °C	N#Cc1c(-c2ccc(Nc3nc(-c4ccc(F)cc4)cs3)cc2)n(C2CCC2)c2cc(OC3CCOCC3)ccc12 [Compound 3153]
196 to 197 °C	CC(C)Nc1ccc(-c2c(C#N)c3ccc(Oc4ncccc4Cl)cc3n2C2CC2)cc1 [Compound 2951]
172 to 174 °C	Cc1ccnc(Oc2ccc3c(C#N)c(-c4ccc(NS(=O)(=O)C5CC5)cc4)n(C4CCC4)c3c2)n1 [Compound 2903]
118 to 124 °C	C[C@H](NS(=O)(=O)Nc1ccc(-c2c(C#N)c3ccc(Oc4ncccc4Br)cc3n2C2CCC2)cc1)C1CC1 [Compound 3020]
202 to 204 °C	N#Cc1c(-c2ccc(NC(N)=S)cc2)n(C2CCC2)c2cc(OC3COCOC3)ccc12 [Compound 2846]
193 to 194 °C	CC(C)NC(=O)N(C(=O)NC(C)C)c1ccc(-c2c(C#N)c3ccc(-c4ccccn4)cc3n2C2CCC2)cc1 [Compound 3226]
195 to 196 °C	N#Cc1c(-c2ccc(NS(=O)(=O)C3CCCC3)cc2)n(C2CCC2)c2cc(OC3COCOC3)ccc12 [Compound 2918]
226 to 228 °C	CCOc1ccc2c(C#N)c(-c3ccc(N4CCCOC4=O)cc3)n(C3CCC3)c2c1 [compound 1346, 1-cyclobutyl-6-ethoxy-2-[4-(2-oxo-[1,3]oxazinan-3-yl)-phenyl]-1H-indole-3-carbonitrile]
194 to 195 °C	C[C@@H](OC(=O)Nc1ccc(-c2c(C#N)c3ccc(N4CCOCC4)cc3n2C2CCC2)cc1)C1CC1 [Compound 2866]
169 to 173 °C	N#Cc1c(-c2ccc(NCC3CCCCC3)cc2)n(C2CCC2)c2cc(OCCF)ccc12 [Compound 3241]
138 to 139 °C	CCCS(=O)(=O)Nc1ccc(-c2c(C#N)c3cc(C(=O)N(C)CC)ccc3n2C2CCC2)cc1 [Compound 3096]

melting point	SMILES
125 to 128 °C	N#Cc1c(-c2ccc(NS(=O)(=O)C3CC3)cc2)n(C2CCC2)c2cc(C(=O)N3CCOCC3)ccc12 [Compound 2825]
183 to 185 °C	N#Cc1c(-c2ccc(NCc3ccccc3C(F)(F)F)cc2)n(C2CCC2)c2cc(OCCF)ccc12 [Compound 2970]
97 to 109 °C	Cc1ccnc(Oc2ccc3c(C#N)c(-c4ccc(NC(=O)O[C@H](C)C5CC5)cc4Cl)n(C4CCC4)c3c2)n1 [Compound 3059]
170 to 171 °C	CCC(=O)Nc1ccc(-c2c(C#N)c3ccc(N4CCN(C)CC4)cc3n2CC)cc1 [compound 1341, N-{4-[3-cyano-1-ethyl-6-(4-methylpiperazin-1-yl)-indol-2-yl]phenyl}propionamide]
193 to 195 °C	CCC(CC)NS(=O)(=O)Nc1ccc(-c2c(C#N)c3ccc(OC4CCOCC4)cc3n2C2CCC2)cc1 [Compound 2836]
150 to 155 °C	CC(C)OC(=O)Nc1c(F)cc(-c2c(C#N)c3ccc(OCCF)cc3n2C2CCC2)cc1F [Compound 3039]
233 to 235 °C	Cc1cc(Nc2ccc(-c3c(C#N)c4ccc(Oc5nccnc5C#N)cc4n3C3CCC3)cc2)n(C)n1 [Compound 3286]
195 to 196 °C	CC(OC(=O)Nc1ccc(-c2c(C#N)c3ccc(OCc4cnccn4)cc3n2C2CCC2)cc1)C(F)(F)F (centres unmarked) [Compound 3021]
218 to 223 °C	C[C@@H](OC(=O)Nc1ccc(-c2c(C#N)c3ccc(OCS(C)(=O)=O)cc3n2C2CCC2)cc1)C1CC1 [compound 2988, (R)-[4-(3-cyano-1-cyclobutyl-6-methanesulfonylmethoxy-1H-indol-2-yl)-phenyl]-carbamic acid 1-cyclopropyl-ethyl ester]
197 to 202 °C	C[C@@H](OC(=O)Nc1ccc(-c2c(C#N)c3ccc(N4CCCC4)cc3n2C2CC2)cc1)C1CC1 [Compound 2986]
138 to 142 °C	CCCS(=O)(=O)Nc1ccc(-c2c(C#N)c3ccc(Oc4ncccc4C(=O)OCC)cc3n2C2CCC2)cc1 [Compound 3308]
224 to 226 °C	CC(C)Nc1ccc(-c2c(C#N)c3ccc(Oc4nccnc4C#N)cc3n2C2CC2)cc1 [Compound 3212]
205 to 207 °C	CS(=O)(=O)Nc1ccc(-c2c(C#N)c3ccc(OC4CCOCC4)cc3n2C2CC2)cc1 [Compound 2911]
156 to 158 °C	C[C@@H](OC(=O)Nc1ccc(-c2c(C#N)c3ccc(C(=O)N4CCOCC4)cc3n2C2CCC2)cc1)C1CC1 [Compound 3107]
156 to 157 °C	COCCOc1ccc2c(C#N)c(-c3ccc(C(=O)N[C@H](C)c4ccc(OC)cc4)cc3)n(C3CCC3)c2c1 [Compound 3133]
161 to 162 °C	C[C@@H](OC(=O)Nc1ccc(-c2c(C#N)c3ccc(OC(F)F)cc3n2C2CCC2)cc1)C(F)(F)F [Compound 2880]
